In patent US6602908B2, “Suppression of carcinoma using high purity conjugated fatty acid” (priority 1999, dated 2003):

Legend:
[1] = system: Carcinogenesis; details: in vivo; cited from earlier work
[2] = system: mammary adenocarcinomas; experiment: Development of mammary tumors in laboratory animals fed dietary CLA; assay type: in vivo; details: for reduction in the total number of mammary adenocarcinomas: laboratory animals
Source text: The synthetically prepared conjugated linoleic acid (CLA) is an effective agent in inhibiting the development of mammary tumors. Laboratory animals fed a diet comprising 0.5%, 1%, or 1.5% by weight conjugated linoleic acid (CLA) have been seen to have a reduction in the total number of mammary adenocarcinomas, in the range of about 30%, 55%, and 60%, respectively. […] Final tumor incidence and cumulative tumor weights are diminished with the administration of a therapeutically effective amount of the purified conjugated linoleic acid (CLA).

[3] = system: breast cancer; details: mice; cited from earlier work
[4] = therapeutically effective amount of purified CLA

| Molecule | effect on Carcinogenesis [1] | inhibition of mammary cancer and protection against subsequent tumor occurrence ([2]; dietary CLA between 0.1 and 0.5% by weight) | reduction in the total number of mammary adenocarcinomas ([2]; diet comprising 0.5% by weight CLA) | reduction in the total number of mammary adenocarcinomas ([2]; diet comprising 1% by weight CLA) [%] | reduction in the total number of mammary adenocarcinomas ([2]; diet comprising 1.5% by weight CLA) [%] | cumulative tumor weights [2, 4] | final tumor incidence [2, 4] | effect on breast cancer [3] |
| --- | --- | --- | --- | --- | --- | --- | --- | --- |
| CCCCC/C=C\C/C=C\CCCCCCCC(=O)O [Linoleic acid, 9-cis, 12-cis octadecadienoic acid] | enhance Carcinogenesis | – | – | – | – | – | – | – |
| conjugated linoleic acid [CLA] | – | dose-dependent inhibition | about 30% | ~55 | ~60 | diminished | diminished | preventive effects |
